# Like-named read-outs stand apart in the source and are kept apart here.
# Legend:
# [1] = target: T1, S. mansoni TGR (Schistosoma mansoni, UniProt Q962Y6); assay type: biochemical; design: The entire TGR ORF plus the SECIS element was subcloned into pET-24a; made in house; host or cells: Escherichia coli BL21(DE3) with pSUABC; conditions: read-out: IC50 S. mansoni TGR, GSSG (GR activity); 100 μM GSSG, 15 min preincubation with 100 μM NADPH
# T1 sequence (Q962Y6 1-598): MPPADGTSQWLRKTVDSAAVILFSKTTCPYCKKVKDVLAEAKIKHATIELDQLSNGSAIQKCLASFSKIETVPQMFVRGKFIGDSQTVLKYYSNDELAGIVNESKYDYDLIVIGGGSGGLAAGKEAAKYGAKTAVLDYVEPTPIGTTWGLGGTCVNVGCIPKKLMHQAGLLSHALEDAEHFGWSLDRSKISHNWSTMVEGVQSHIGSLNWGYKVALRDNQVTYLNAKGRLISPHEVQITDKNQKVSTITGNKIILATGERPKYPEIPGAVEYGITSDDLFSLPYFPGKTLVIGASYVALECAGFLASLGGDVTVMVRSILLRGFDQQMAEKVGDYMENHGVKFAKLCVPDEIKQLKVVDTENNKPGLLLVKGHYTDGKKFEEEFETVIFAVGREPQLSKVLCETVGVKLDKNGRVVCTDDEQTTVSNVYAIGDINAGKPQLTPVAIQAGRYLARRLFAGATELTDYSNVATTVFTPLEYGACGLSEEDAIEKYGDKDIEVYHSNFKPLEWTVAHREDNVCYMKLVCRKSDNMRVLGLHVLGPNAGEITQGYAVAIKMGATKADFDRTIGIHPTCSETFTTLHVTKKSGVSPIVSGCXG
# Method: (§1) Assays were performed at 25 °C in 0.1 M potassium phosphate (pH 7.4), 10 mM EDTA using 100 μM NADPH unless otherwise stated.
# (§2) Initial inhibitor screens were conducted in 200 μl volumes in 96 well plates with 50 μM inhibitor, 100 μM NADPH, and 5 nM TGR in 0.1 M potassium phosphate (pH 7.4), 10 mM EDTA with a preincubation step of 15 min. […] All assays were done in triplicate.
# [2] = target: T1, S. mansoni TGR; assay: IC50, Grx activity of TGR (HED assay), 15 min preincubation; assay type: biochemical; design: The entire TGR ORF plus the SECIS element was subcloned into pET-24a; made in house; host or cells: Escherichia coli BL21(DE3) with pSUABC; conditions: 8 mM HED plus 1 mM GSH, 15 min preincubation with 100 μM NADPH
# Method: as §1, §2
# [3] = target: TGR (Schistosoma mansoni, UniProt Q962Y6); assay: TrxR and GR activities of TGR in homogenates of treated worms; assay type: cell-based; conditions: after 1 h of treatment with 10 μM AF, compared to control worms
# Method: AF was dissolved in DMSO and added to freshly perfused worms in DMEM to 10 μM. Control worms were treated with equal amounts of carrier. Worms were subsequently observed for unpairing, motility, and mortality, and were collected at the indicated time intervals for analysis. Worms were homogenized by sonication in PBS and homogenates were assayed for TrxR and GR activities as described above. […] Each assay was done in triplicate and each experiment was done three times.
# [4] = target: T1, S. mansoni TGR; assay type: biochemical; design: The entire TGR ORF plus the SECIS element was subcloned into pET-24a; made in house; host or cells: Escherichia coli BL21(DE3) with pSUABC; conditions: read-out: IC50 S. mansoni TGR, DTNB (TrxR activity); 3 mM DTNB, 15 min preincubation with 100 μM NADPH
# Method: as §1, §2
# [5] = tested on: mammalian cells; design: method as in PMID 14561156; conditions: cultured in 10 μM AF; cited from earlier work
# [6] = target: T1, S. mansoni TGR
# Method: as §1, §2
# [7] = tested on: lactate dehydrogenase (LDH); assay: LDH activity in homogenates of treated worms; assay type: cell-based, Schistosoma mansoni; conditions: 10 μM AF
structure (smiles),measurement,setting,value
"CC(=O)OC[C@H]1O[C@@H]([S-])[C@H](OC(C)=O)[C@@H](OC(C)=O)[C@@H]1OC(C)=O.CCP(CC)CC.[Au+] [AF, auranofin]",IC50,[1],9 nM
same,IC50,[2],6 nM
same,Inhibition of GR activity of TGR in worm homogenates,[3],~100%
same,Inhibition of TrxR activity of TGR in worm homogenates,[3],~100%
same,IC50,[4],7 nM
same,Viability of mammalian cells,[5],over 95%
same,activity,[6],0%
same,LDH activity in worm homogenates,[7],no significant deviation from controls

# From PMC1892040 (PLoS Medicine, 2007)
